Test results published in patent EP0342003B1, “Use of 15-ketoprostaglandin E or F compounds for uterine contraction” (Kabushiki Kaisha Ueno Seiyaku Oyo Kenkyujo, priority 1988, dated 1989).

Key:
uterus = experiment: Uterine contraction of an isolated uterus section in a Magnus tube; format: cell-based; conditions: Rattus norvegicus, ratio to contraction by oxytocin (1mU) taken as 100%; for activation at 1 µM: Dose 1x10^-6 M; for activation at 0.3 µM: Dose 3x10⁻⁷ M
Protocol: Test Example 1 (Uterine contraction)
An estrous rat (female, 150g) was used as test animals. The rat was sacrificed by bleeding and uterus was extirpated. A section of about 2.0cm was cut off and hung in a Magnus tube containing Tyrode solution or Beauvillain solution.
The section of uterus was held for about 5 minutes until it because stable and then contracted several times by administering oxytocin (1mU). After stable contraction was obtained, the section received test compounds. Contractions obtained by the test compounds were expressed as a ratio to the contraction by oxytocin which was taken as 100%. The results are shown in Table 1 (15-keto-PGE derivatives) and Table 2 (15-keto-PGF derivatives).

ileum = experiment: Intestinal contraction of an isolated ileum section in a Magnus tube (reference example); format: cell-based, Wistar rat; conditions: result in words
Protocol: Test Example 3 (Intestinal contraction ... Reference example)
A section was cut off from ileum of a Wistar rat (male) and hung in a Magnus tube. The section was contracted several times by administering acetylcholine (1x10⁻⁶ g/ml) and received test compounds after giving two or more contractions of the same intensity. Contractions obtained by the test compounds were expressed as a ratio to the contraction by acetylcholine (1x10⁻⁶ g/ml) which was taken as 100%, and EC₅₀ values were calculated as a concentrations for 50% contraction.

CCCCCCC(F)C(=O)CC[C@@H]1[C@@H](C/C=C\CCCC(=O)OC)[C@@H](O)C[C@H]1O (stereo partly drawn) [Y-7, 13,14-dihydro-15-keto-20-ethyl-16R,S-fluoro-PGF2α methyl ester] was tested, and the activation at 10 µM (uterus; Table 2, Dose 1x10⁻⁵ M) was 85%.

Work on CCCCC(F)C(=O)/C=C/[C@H]1[C@H](O)CC(=O)[C@@H]1C/C=C\CCCC(=O)OC (stereo partly shown) [X-9] yielded an activation at 10 µM (uterus; Table 1, Dose 1x10^-5 M) of 84%.

In the case of CCCCC(F)C(=O)CC[C@H]1[C@H](O)CC(=O)[C@@H]1C/C=C\CCCC(=O)OC (stereo partly shown) [X-5, 13,14-dihydro-15-keto-16R,S-fluoro-PGE2 methyl ester], the activation at 3 µM (uterus; Table 1, Dose 3x10^-6 M) is reported as 64%.

Work on COCCCCCC(=O)CC[C@@H]1[C@@H](C/C=C\CCCC(=O)OC)[C@@H](O)C[C@H]1O [Y-9, 13,14-dihydro-15-keto-20-methoxy-PGF2α methyl ester] yielded an activation at 100 µM (uterus; Table 2, Dose 1x10⁻⁴ M) of 50%.

CCCCCC(F)C(=O)CC[C@H]1[C@H](O)CC(=O)[C@@H]1C/C=C\CCCC(=O)OC (stereo partly shown) [X-10] gave an activation at 10 µM (uterus; Table 1, Dose 1x10^-5 M) of 80%.

CCCCC(F)(F)C(=O)CC[C@H]1[C@H](O)CC(=O)[C@@H]1C/C=C\CCCC(=O)O [X-14] showed an activation at 1 µM (uterus; Table 1) of 81%.

In the case of O=C(O)CCC/C=C\C[C@@H]1[C@@H](CCC(=O)COc2cccc(C(F)(F)F)c2)[C@H](O)C[C@@H]1O [Y-12, 13,14-dihydro-15-keto-16-desbutyl-16-m-trifluoromethylphenoxy-PGF2α], the activation at 0.1 µM (uterus; Table 2, Dose 1x10⁻⁷ M) is reported as 52%.

With CCCCCCC(F)C(=O)CC[C@@H]1[C@@H](C/C=C\CCCC(=O)O)[C@@H](O)C[C@H]1O (stereo partly drawn) [Y-6, 13,14-dihydro-15-keto-20-ethyl-16R,S-fluoro-PGF2α] the activation at 0.3 µM (uterus; Table 2) was 92%.

With CCCCC(F)C(=O)CC[C@H]1[C@H](C)CC(=O)[C@@H]1C/C=C\CCCC(=O)OCC (stereo partly drawn) [X-7, 13,14-dihydro-15-keto-16R,S-fluoro-11-dehydroxy-11R-methyl-PGE2 ethyl ester] the activation at 100 µM (uterus; Table 1, Dose 1x10^-4 M) was 50%.

In the case of CCCCC(F)C(=O)/C=C/[C@@H]1[C@@H](C/C=C\CCCC(=O)OC)[C@@H](O)C[C@H]1O (stereo partly drawn) [Y-11, 15-keto-16R,S-fluoro-PGF2α methyl ester], the activation at 10 µM (uterus; Table 2, Dose 1x10⁻⁵ M) is reported as 95%.

Work on CCCCC(F)(F)C(=O)CC[C@H]1[C@H](O)CC(=O)[C@@H]1C/C=C\CCCC(=O)OC [X-13] yielded an activation at 1 µM (uterus; Table 1) of 63%.

CCCCCC(=O)CC[C@@H]1[C@@H](C/C=C\CCCC(=O)OC)[C@@H](O)C[C@H]1O [13,14-dihydro-15-keto-PGF2α methyl ester] was tested, and the intestinal contraction (ileum) was “without intestinal contraction”.

In the case of CCCCC(F)C(=O)CC[C@H]1[C@H](O)CC(=O)[C@@H]1C/C=C\CCCC(=O)OCC (stereo partly shown) [X-6, 13,14-dihydro-15-keto-16R,S-fluoro-PGE2 ethyl ester], the activation at 10 µM (uterus; Table 1, Dose 1x10^-5 M) is reported as 89%.

Compound CCCCC(F)C(=O)CC[C@H]1[C@H](O)CC(=O)[C@@H]1CC(=O)CCCCC(=O)OCC (stereo partly shown) [X-1, 13,14-dihydro-6,15-diketo-16R,S-fluoro-PGE1 ethyl ester] has an activation at 100 µM (uterus; Table 1, Dose 1x10^-4 M) of 86%.

Work on CCCCC(F)C(=O)/C=C/[C@H]1[C@H](O)CC(=O)[C@@H]1C/C=C\CCCC(=O)O (stereo partly shown) [X-11] yielded an activation at 1 µM (uterus; Table 1) of 80%.

CCCCC(F)(F)C(=O)CC[C@@H]1[C@@H](C/C=C\CCCC(=O)OC)[C@@H](O)C[C@H]1O [Y-3, 13,14-dihydro-15-keto-16,16-difluoro-PGF2α methyl ester] was tested, and the activation at 3 µM (uterus; Table 2, Dose 3x10⁻⁶ M) was 82%.

Work on CCCCCCC(F)C(=O)CC[C@@H]1[C@@H](C/C=C\CCCC(=O)OC)[C@@H](O)C[C@H]1C (stereo partly drawn) [Y-8, 13,14-dihydro-15-keto-20-ethyl-16R,S-fluoro-11-dehydroxy-11R-methyl-PGF2α methyl ester] yielded an activation at 100 µM (uterus; Table 2, Dose 1x10⁻⁴ M) of 50%.

CCCCC(F)C(=O)CC[C@H]1[C@H](O)CC(=O)[C@@H]1C/C=C\CCCC(=O)O (stereo partly shown) [X-4, 13,14-dihydro-15-keto-16R,S-fluoro-PGE2] showed an activation at 1 µM (uterus; Table 1) of 87%.

With O=C(O)CCC/C=C\C[C@H]1C(=O)C[C@@H](O)[C@@H]1CCC(=O)COc1cccc(C(F)(F)F)c1 [X-15] the activation at 1 µM (uterus; Table 1) was 32%.

COC(=O)CCC/C=C\C[C@@H]1[C@@H](CCC(=O)COc2cccc(C(F)(F)F)c2)[C@H](O)C[C@@H]1O [Y-10, 13,14-dihydro-15-keto-16-desbutyl-16-m-trifluoromethylphenoxy-PGF2α methyl ester] was tested, and the activation at 0.3 µM (uterus; Table 2) was 92%.

For CCCCC(F)C(=O)CC[C@@H]1[C@@H](C/C=C\CCCC(=O)OC)[C@@H](O)C[C@H]1O (stereo partly drawn) [Y-2, 13,14-dihydro-15-keto-16R,S-fluoro-PGF2α methyl ester], the activation at 3 µM (uterus; Table 2, Dose 3x10⁻⁶ M) was 70%.

CCCCC(F)C(=O)CC[C@@H]1[C@@H](C/C=C\CCCC(=O)OCC)[C@@H](O)C[C@H]1C (stereo partly drawn) [Y-4, 13,14-dihydro-15-keto-16R,S-fluoro-11-dehydroxy-11R-methyl-PGF2α ethyl ester] was tested, and the activation at 100 µM (uterus; Table 2, Dose 1x10⁻⁴ M) was 50%.

CCCCC(O)C(=O)CC[C@H]1[C@H](O)CC(=O)[C@@H]1C/C=C\CCCC(=O)OCC (stereo partly shown) [X-3, 13,14-dihydro-15-keto-16R,S-hydroxy-PGE2 ethyl ester] showed an activation at 100 µM (uterus; Table 1, Dose 1x10^-4 M) of 50%.

In the case of CCCCC(F)C(=O)CC[C@@H]1[C@@H](C/C=C\CCCC(=O)O)[C@@H](O)C[C@H]1O (stereo partly drawn) [Y-1, 13,14-dihydro-15-keto-16R,S-fluoro-PGF2α], the activation at 0.3 µM (uterus; Table 2) is reported as 89%.

For CCCCC(F)C(=O)CC[C@H]1[C@H](O)CC(=O)[C@@H]1CCCCCCC(=O)O (stereo partly shown) [X-12], the activation at 1 µM (uterus; Table 1) was 34%.

Work on CCCCC(F)C(=O)CC[C@H]1[C@H](C)CC(=O)[C@@H]1CC(=O)CCCCC(=O)OCC (stereo partly drawn) [X-2, 13,14-dihydro-6,15-diketo-16R,S-fluoro-11-dehydroxy-11R-methyl-PGE1 ethyl ester] yielded an activation at 10 µM (uterus; Table 1, Dose 1x10^-5 M) of 82%.

In the case of COCCCCC(C)(C)C(=O)CC[C@H]1[C@H](O)CC(=O)[C@@H]1C/C=C\CCCC(=O)OC [X-8], the activation at 10 µM (uterus; Table 1, Dose 1x10^-5 M) is reported as 64%.

CCCCCC(F)C(=O)CC[C@@H]1[C@@H](C/C=C\CCCC(=O)OC)[C@@H](O)C[C@H]1O (stereo partly drawn) [Y-5, 13,14-dihydro-15-keto-16R,S-fluoro-20-methyl-PGF2α methyl ester] gave an activation at 3 µM (uterus; Table 2, Dose 3x10⁻⁶ M) of 42%.
